Type in all cases: biochemical
For one test, the target named is T1, GC-A (Rattus norvegicus, UniProt P18910).
T1 sequence (P18910 29-1057): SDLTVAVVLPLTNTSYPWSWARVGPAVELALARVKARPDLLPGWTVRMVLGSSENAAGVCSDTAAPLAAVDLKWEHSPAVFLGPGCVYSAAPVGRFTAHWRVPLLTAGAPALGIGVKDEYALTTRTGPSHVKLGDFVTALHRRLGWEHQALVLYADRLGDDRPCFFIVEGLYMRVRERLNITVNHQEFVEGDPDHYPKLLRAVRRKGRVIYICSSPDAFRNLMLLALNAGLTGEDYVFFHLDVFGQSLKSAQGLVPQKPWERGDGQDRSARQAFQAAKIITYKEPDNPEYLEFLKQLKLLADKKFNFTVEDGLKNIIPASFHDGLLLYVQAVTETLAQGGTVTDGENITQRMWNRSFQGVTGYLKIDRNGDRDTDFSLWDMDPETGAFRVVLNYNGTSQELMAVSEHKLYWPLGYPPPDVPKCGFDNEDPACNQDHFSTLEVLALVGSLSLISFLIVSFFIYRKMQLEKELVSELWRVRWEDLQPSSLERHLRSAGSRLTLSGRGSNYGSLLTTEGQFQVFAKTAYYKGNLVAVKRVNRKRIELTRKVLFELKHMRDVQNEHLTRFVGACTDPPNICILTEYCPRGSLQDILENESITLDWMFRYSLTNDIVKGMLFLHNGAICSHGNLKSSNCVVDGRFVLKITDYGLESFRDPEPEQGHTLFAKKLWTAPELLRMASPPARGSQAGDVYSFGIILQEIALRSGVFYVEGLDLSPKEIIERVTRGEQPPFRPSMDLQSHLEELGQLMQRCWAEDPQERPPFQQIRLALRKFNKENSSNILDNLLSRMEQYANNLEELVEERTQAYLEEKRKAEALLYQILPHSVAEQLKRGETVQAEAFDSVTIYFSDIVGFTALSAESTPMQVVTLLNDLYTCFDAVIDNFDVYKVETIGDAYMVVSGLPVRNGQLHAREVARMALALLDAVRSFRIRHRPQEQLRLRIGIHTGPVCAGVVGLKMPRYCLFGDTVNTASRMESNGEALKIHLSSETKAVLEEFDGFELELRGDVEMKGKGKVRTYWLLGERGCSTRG
T1 sequence (P01161 123-150 partner limits assumed): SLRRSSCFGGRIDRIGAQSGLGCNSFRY
Briefly: GC assay. To be noted: for increase of ANP-stimulated GC-A activity by adenine nucleotide: saturating ANP; for EC50: EC50 for activation.

The target in a further test is GC-B (Rattus norvegicus, UniProt P16067). Briefly: GC assay.
Another test deals with endogenous GC-B (Mus musculus, UniProt Q6VVW5). Briefly: GC assay in crude membranes from NIH 3T3 cells. The following applies: 125 nM CNP, 0.1 mM GTP.
Where [1] appears, read: 1 μM ANP, 9 min, nucleotide at 1 mM.
The mark [2] stands for this setting: NP-stimulated, 9 min, 10 μM ATP.
Setting [3] is: NP-stimulated, 9 min, 100 μM ATP.
Where [4] appears, read: CNP-stimulated, presence of ATP.
Where [5] appears, read: NP-stimulated, 9 min, 750 μM ATP.
[6] abbreviates: presence of CNP, absence of ATP, increasing Mg2+GTP.

The source of these data is PMC4411398 (Science signaling, 2012).

Broadly, the Hill coefficient is a measure of the steepness of the concentration-response curve. One may read the Km as the substrate concentration at which the rate is half of its maximum. The term EC50 denotes the midpoint of the concentration-response curve.

Sequence of GC-B (P16067 17-1047): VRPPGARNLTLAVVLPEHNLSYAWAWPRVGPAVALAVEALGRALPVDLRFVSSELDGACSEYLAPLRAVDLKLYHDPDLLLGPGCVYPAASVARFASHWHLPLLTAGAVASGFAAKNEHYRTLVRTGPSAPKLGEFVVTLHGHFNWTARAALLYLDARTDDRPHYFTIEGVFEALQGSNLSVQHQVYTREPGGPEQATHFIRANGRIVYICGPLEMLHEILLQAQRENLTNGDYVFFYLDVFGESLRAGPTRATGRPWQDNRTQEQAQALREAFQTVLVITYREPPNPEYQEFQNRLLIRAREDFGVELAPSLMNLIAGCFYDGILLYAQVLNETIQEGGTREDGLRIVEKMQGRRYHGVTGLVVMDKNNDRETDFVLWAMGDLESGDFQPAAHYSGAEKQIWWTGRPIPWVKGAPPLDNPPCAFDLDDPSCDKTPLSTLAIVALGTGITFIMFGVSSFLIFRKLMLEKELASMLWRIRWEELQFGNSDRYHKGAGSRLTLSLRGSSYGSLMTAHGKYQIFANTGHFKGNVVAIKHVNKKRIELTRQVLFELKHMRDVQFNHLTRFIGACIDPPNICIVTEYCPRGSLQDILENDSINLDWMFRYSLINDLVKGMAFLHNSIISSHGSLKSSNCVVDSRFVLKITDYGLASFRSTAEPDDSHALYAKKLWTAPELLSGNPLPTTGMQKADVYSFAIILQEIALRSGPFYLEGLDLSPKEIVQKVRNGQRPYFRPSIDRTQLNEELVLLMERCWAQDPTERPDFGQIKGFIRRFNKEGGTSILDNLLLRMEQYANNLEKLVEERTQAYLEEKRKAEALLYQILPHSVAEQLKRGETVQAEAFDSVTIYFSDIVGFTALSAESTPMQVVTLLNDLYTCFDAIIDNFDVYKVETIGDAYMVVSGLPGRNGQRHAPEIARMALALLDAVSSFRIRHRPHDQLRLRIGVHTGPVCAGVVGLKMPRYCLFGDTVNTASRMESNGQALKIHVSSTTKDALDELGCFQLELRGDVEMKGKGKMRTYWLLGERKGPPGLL
Sequence of GC-B (P55207 105-126 partner limits assumed): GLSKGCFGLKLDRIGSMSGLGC
Sequence of endogenous GC-B (Q6VVW5 17-1047): as the sequence (P16067 17-1047) above, with H100R, T188A, E385D, I449V, R1024Q counted along it

Take `Nc1ncnc2c1ncn2[C@H]1C[C@H](O)[C@@H](COP(=O)(O)OP(=O)(O)OP(=O)(O)O)O1` [2′-deoxy-ATP]: at GC-A (setting [1]), the Hill coefficient was found to be 1.2 ± 0.24 and the Km stood at 400 ± 80 µM. Besides, the “activation of GC-A compared with ATP” value on GC-A (single-substrate concentration GC assays, 0.1 mM GTP, ANP) is listed as “poorer activator of GC-A than was ATP”.

Consider `Nc1ncnc2c1ncn2[C@@H]1O[C@H](COP(=O)(O)OP(=O)(O)O)[C@@H](O)[C@H]1O` [ADP, adenosine diphosphate], for which, at GC-A (setting [1]), the Hill coefficient was 1.1 ± 0.18 and the Km was 200 ± 40 µM.

As to `Nc1ncnc2c1ncn2[C@@H]1O[C@H](COP(=O)(O)O)[C@@H](O)[C@H]1O` [AMP, adenosine monophosphate], the “increase of ANP-stimulated GC-A activity by adenine nucleotide” value on GC-A (0.1 mM GTP) was “failed to increase activity”.

Consider `Nc1ncnc2c1ncn2[C@@H]1O[C@H](COP(=O)(O)OP(=O)(O)OP(=O)(O)O)[C@@H](O)[C@H]1O` [ATP, adenosine triphosphate], for which the Km on GC-A (setting [1]) was 100 ± 20 µM; at GC-A (NP-activated receptor, presence of ATP) it was roughly 100 µM. Moreover, the EC50 is 77 µM on GC-A (NP-stimulated, 0.1 mM GTP); 38 µM at GC-A (NP-stimulated, 0.3 mM GTP); 38 µM on GC-A (NP-stimulated, 0.9 mM GTP); 16 µM at GC-A (NP-stimulated, 5.4 mM GTP); roughly 100 µM at GC-B (EC50 for ATP activation, approximate value stated in the discussion); 40 µM at GC-B (EC50 for activation, NP-stimulated, 0.1 mM GTP). For the same compound, the EC50 at GC-B (EC50 for activation, NP-stimulated, 0.3 mM GTP) was 26 µM; at GC-B (EC50 for activation, NP-stimulated, 0.9 mM GTP), 16 µM; on GC-B (EC50 for activation, NP-stimulated, 5.4 mM GTP) it was 19 µM. Besides, the Hill coefficient at GC-A (setting [2]) stood at 1.2 ± 0.08; at GC-A (setting [3]) it was 0.9 ± 0.07; at GC-B (setting [2]) it was 0.9 ± 0.13; at GC-B (setting [5]) it was 0.9 ± 0.24; at GC-B (absence of NPs, presence of ATP), 1.1. In addition, the Michaelis constant at GC-A (setting [3]) is recorded as 0.08 ± 0.010 mM; on GC-B (setting [2]), 0.4 ± 0.11 mM; at GC-B (setting [5]), 0.2 ± 0.18 mM. For the same compound, the S0.5 on GC-B (setting [4]) is given as 0.09 ± 0.02 mM; on GC-B (basal (no NP), presence of ATP) it was 1.0 ± 0.15 mM. In addition, the Vmax at GC-B (setting [4]) is 41 ± 3.1 nmol mg^−1 (9 min)^−1; at GC-B (basal (no NP), presence of ATP), 4 ± 0.3 nmol mg^−1 (9 min)^−1.

As to `Nc1ncnc2c1ncn2[C@@H]1O[C@H](CO)[C@@H](O)[C@H]1O` [adenosine], the “increase of ANP-stimulated GC-A activity by adenine nucleotide” value on GC-A (0.1 mM GTP) was “failed to increase activity”.

Regarding C-type natriuretic peptide [CNP], in the test with GC-B (absence of ATP), the “increase of maximal velocity” value amounted to 13 fold. For the same compound, the S0.5 in the test with GC-B (setting [6]) is 1.0 ± 0.15 mM. Also, the Vmax in the test with GC-B (setting [6]) is reported as 49 ± 3.7 nmol mg^−1 (9 min)^−1. The results for the “increase of GC-B activity” value with endogenous GC-B (absence of ATP) and in the test with endogenous GC-B (presence of 1 mM ATP) were “no statistically significant increase in activity” and “more than fourfold”, respectively.
